According to patent US6291432A (Japan Energy Corporation, priority 1996, dated 2001):
pKi: −log10 of the molar value. In brackets after ≈: the same amount, converted by molar mass.

What was measured:
[1] = target: T1, recombinant HIV-1 protease (Human immunodeficiency virus type 1 group M subtype B, UniProt P04585); assay: HIV protease inhibition activity (enzyme activity inhibition rate); assay type: biochemical; details: 50 nM final concentration of test compound; 60 min at 37° C.; read-out: Enzyme activity inhibition rate (%) (addition concentration of 50 nM)
T1 construct: measured using a recombinant HIV-1 protease
Protocol: The protease activity was measured using a recombinant HIV-1 protease (see Biochemistry, 250 (9)-264 (1990)) and a synthesized peptide substrate. The inhibition rate was calculated by determining a peptide fragment generated by cleavage between Tyr-Pro of the synthesized substrate after the reaction of 60 min at 37° C. using a reversed phase HPLC in the presence of the test compounds in various concentrations (see, for example, Japanese Patent Application Laid-open No. 170722/1993).
Examples of the evaluation results of the HIV protease inhibition activity of the tripeptide compound of the present invention by the above-described method is shown in Table 1. […] The concentration of the test compounds in Table 1 represents the final concentration in the reaction mixture.

[2] = test system: HIV virus strain HIV-1 IIIB; assay: Anti-HIV activity in HIV infected CEM-SS cells (XTT method); assay type: cell-based; details: Human immunodeficiency virus 1, 144 h, HIV-1 IIIB infected CEM-SS cell, six days at 37° C.
Protocol: (§1) EP 0751145 A2). On a 96-well micro titre plate, the test compounds were added to the culture medium in various concentrations, then the HIV infected CEM-SS cell was added and incubated for six days at 37° C. using a CO2 incubator. The number of the living cells was then measured by a XTT method. On the other hand, in order to examine the cytotoxicity of the test compounds, the test compounds were added in various concentrations and the HIV virus non-infected cell was incubated under similar conditions. As the reference group, the HIV infected CEM-SS cell was incubated without the addition of the test compounds. Moreover, the HIV virus non-infected cell was incubated without the addition of the test compound as the control group. The anti-virus activity was evaluated in a concentration in which the cytotoxic effect caused by the HIV infected virus in the above HIV infected cell group was inhibited 50 percent (EC50, 50% effective concentration), and the cytotoxicity was evaluated in a concentration in which the cytotoxic effect by the addition of the test compound in the HIV virus non-infected cell group occurred at 50 percent (TC50, 50% cytotoxic concentration) respectively.

CEM-SS cell = assay: Cytotoxicity in HIV virus non-infected CEM-SS cells (XTT method); assay type: cell-based; details: six days, highest concentration 1.0 μg/ml
Protocol: as §1

[3] = Pharmacokinetics test (digestive tract absorption and metabolic characteristics) in rats; assay type: in vivo; details: 10 mg/kg; for F (biological utilization rate of administration in the duodenum): Id versus Iv; for MRT / T1/2 (λ): Iv; for T1/2 (λ): final phase half-life
Protocol: The metabolic characteristics of the tripeptide compound of the present invention were evaluated using rats for a test animal. As the Control Example, the result of KNI-272 ((R)-N-tert-butyl-3-{(2S,3S)-2-hydroxy-3-[N-(isoquinolin-5-yloxy)acetyl-me thylthio-L-alanyl]amino-4-phenylbutanoyl}-1,3-thiazolidine-4-carboxamide; iQoa-Mta-Apns-Thz-NHtBu) which is a tripeptide derivative known in the art, is also shown. The amount administred was 10 mg/kg. The evaluated administration methods are a method (id) of administering a solution of a fixed amount of the test compound in the duodenum of a test animal, and a method (iv) of administering the solution intravenously. After administration, blood samples were taken from the test animal and concentrations of the residual test compound in the plasma were analyzed. As indices concerning pharmacokinetics, AUC (area under medicine concentration curve in plasma), MRT (mean residence time), t1/2 (λ) (final phase half-life period), and the biological utilization rate of administration in the duodenum F were calculated.

[4] = target: T1, recombinant HIV-1 protease; assay: Evaluation of enzyme inhibition constant Ki; assay type: biochemical
Protocol: The synthesized peptide substrate having a sequence of H-Lys-Ala-Arg-Val-Tyr-Phe (4-NO2)-Glu-Ala-Nle-NH2 (SEQ ID NO. 1) was used in this experiment. The enzyme reaction was measured using a reversed phase HPLC by determining the C-terminal peptide fraction produced by cleavage just behind Tyr in the synthesized substrate which is obtained by reacting the following composition for 15 min. at 37° C. and stopping the reaction by the addition of 1N HCl (75 μl).
Composition of reaction mixture
Recombinant HIV-1 protease enzyme solution 10 μl
0.5 mM synthetic substrate aqueous solution 10 μl
DMSO Inhibitor solution 5 μl
0.2 M MES solution 25 μl
(1 M NaCl, 2 mM EDTA-2Na, 2 mM DTT, pH 5.5)
Column: Waters Nova-pak C18 (3.9×75 mm)
Eluent: A; water (0.1% TFA)
B; acetonitrile (0.1% TFA)
Flow rate: 2 ml/min isocratic; 10% B solution
Detection: Fluorescence 305 nm, excitation 275 nm

| Structure (SMILES) | inhibition at 0.05 µM [1] [%] | EC50 [2] [µg/mL] | Cytotoxicity TC50 (CEM-SS cell) [µg/mL] | AUC ([3]; Id (in the duodenum)) [µg·min/mL] | F (biological utilization rate of administration in the duodenum) [3] [%] | MRT [3] [h] | AUC ([3]; Iv (intravenous)) [µg·min/mL] | T1/2 (λ) [3] [h] | pKi [4] |
| --- | --- | --- | --- | --- | --- | --- | --- | --- | --- |
| COC(=O)N[C@H](C(=O)N[C@@H](Cc1ccccc1)[C@H](O)C(=O)N1CSC(C)(C)[C@H]1C(=O)NCc1ccccc1C)C(C)C [Example 27, (R)-N-(2-methylbenzyl)-3-{(2S,3S)-2-hydroxy-3-[(S)-2-(methoxycarbonyl)amino-3-methylbutanoyl]amino-4-phenylbutanoyl}-5,5-dimethyl-1,3-thiazolidine-4-c arboxamide] | 94.9 | 0.026 (≈ 0.0434 µM) | > 1.0 | 87 | 32 | 1.18 | 272 | 1.45 |  |
| CC(C)[C@H](NC(=O)COc1cccc(N(C)C)c1)C(=O)N[C@@H](Cc1ccccc1)[C@H](O)C(=O)N1CSC(C)(C)[C@H]1C(=O)NC(C)(C)C [Example 35, (R)-N-tert-butyl-3-{(2S,3S)-2-hydroxy-3-[(S)-2-(3-dimethylaminophenoxyacetyl)amino-3-methylbutanoyl]amino-4-phenylbutanoyl}-5,5-dimethyl-1,3-thiazolidine-4-carboxamide] | 96 | 0.01 (≈ 0.0149 µM) | > 1.0 | 105 | 89 | 1.13 | 119 | 1.05 | 10.15 |
| COc1cccc2cc(C(=O)N[C@H](C(=O)N[C@@H](Cc3ccccc3)[C@H](O)C(=O)N3CSC(C)(C)[C@H]3C(=O)NCc3ccccc3C)C(C)C)oc12 [Example 16, (R)-N-(2-methylbenzyl)-3-{(2S,3S)-3-[N-(7-methoxybenzofuran-2-carbonyl)-L-valyl]amino-2-hydroxy-4-phenylbutanoyl}-5,5-dimethyl-1,3-thiazolidine-4-carb oxamide] | 97.1 | 0.0017 (≈ 0.00238 µM) | > 1.0 | 90 | 27 | 1.12 | 322 | 1.23 | 10.85 |
